Measurements taken from US10487092B2, “Pyrazolopyridinamines as MKNK1 and MKNK2 inhibitors” (BAYER PHARMA AKTIENGESELLSCHAFT, priority 2014, dated 2019).

Each compound was assayed against human full-length MKNK1 (Homo sapiens (Human), UniProt Q9BUB5, T344D) (assay: MKNK1 kinase high ATP assay (TR-FRET)). Settings: high ATP (2 mM), 15 min preincubation with enzyme; read-out: MKNK1 IC50.
Format: biochemical
Procedure, shortened: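 GST-tagged full-length MKNK1 (aa 1–424, T344D; insect-cell expressed) preincubated 15 min with compound, then reacted 30 min at 22 °C with 2 mM ATP and 0.06 μM biotinylated peptide (final) in HEPES pH 7.5 buffer. Phosphopeptide detected by TR-FRET 665/620 ratio, normalized to no-inhibitor and no-enzyme controls.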

Chain of human full-length MKNK1 (Q9BUB5 other isoform, or with tags, fused parts or gaps T344D): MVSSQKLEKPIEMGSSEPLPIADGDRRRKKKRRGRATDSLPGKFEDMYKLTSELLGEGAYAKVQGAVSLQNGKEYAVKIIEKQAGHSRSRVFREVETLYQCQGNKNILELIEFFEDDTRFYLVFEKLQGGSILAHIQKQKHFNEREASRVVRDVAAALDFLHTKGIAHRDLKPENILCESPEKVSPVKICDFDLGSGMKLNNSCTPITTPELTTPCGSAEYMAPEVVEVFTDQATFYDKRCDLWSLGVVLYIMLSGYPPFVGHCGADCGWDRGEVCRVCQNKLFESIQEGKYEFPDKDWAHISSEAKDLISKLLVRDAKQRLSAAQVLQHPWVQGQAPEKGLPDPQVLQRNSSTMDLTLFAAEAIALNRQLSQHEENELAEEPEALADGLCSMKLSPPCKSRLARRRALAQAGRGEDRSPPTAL

SMILES	IC50 [nM]
CNC(=O)[C@H]1CCc2c(sc3ncnc(Nc4cc5ccnn5cc4OC)c23)C1 [Example 78, (7S)-4-[(6-Methoxypyrazolo[1,5-a]pyridin-5-yl)amino]-N-methyl-5,6,7,8-tetrahydro[1]benzothieno[2,3-d]pyrimidine-7-carboxamide]	5
COc1cn2nccc2cc1Nc1ncnc2sc3c(c12)CC[C@H](C(=O)NCC(F)F)C3 [Example 79, (7S)—N-(2,2-Difluoroethyl)-4-[(6-methoxypyrazolo[1,5-a]pyridin-5-yl)amino]-5,6,7,8-tetrahydro[1]benzothieno[2,3-d]pyrimidine-7-carboxamide]	3
COc1cn2nccc2cc1Nc1ncnc2sc3c(c12)CC[C@H](C(=O)NCCC(F)(F)F)C3 [Example 80, (7S)-4-[(6-Methoxypyrazolo[1,5-a]pyridin-5-yl)amino]-N-(3,3,3-trifluoropropyl)-5,6,7,8-tetrahydro[1]benzothieno[2,3-d]pyrimidine-7-carboxamide]	3
COc1cn2nccc2cc1Nc1ncnc2sc3c(c12)CC[C@H](C(=O)NCC(C)(C)O)C3 [Example 81, (7S)—N-(2-Hydroxy-2-methylpropyl)-4-[(6-methoxypyrazolo[1,5-a]pyridin-5-yl)amino]-5,6,7,8-tetrahydro[1]benzothieno[2,3-d]pyrimidine-7-carboxamide]	2
COc1cn2nccc2cc1Nc1ncnc2sc3c(c12)CC[C@H](C(=O)NCCN(C)C)C3 [Example 82, (7S)—N-[2-(Dimethylamino)ethyl]-4-[(6-methoxypyrazolo[1,5-a]pyridin-5-yl)amino]-5,6,7,8-tetrahydro[1]benzothieno[2,3-d]pyrimidine-7-carboxamide]	3
COc1cn2nccc2cc1Nc1ncnc2sc3c(c12)CC[C@H](C(=O)NCCO)C3 [Example 83, (7S)—N-(2-Hydroxyethyl)-4-[(6-methoxypyrazolo[1,5-a]pyridin-5-yl)amino]-5,6,7,8-tetrahydro[1]benzothieno[2,3-d]pyrimidine-7-carboxamide]	3
COCCNC(=O)[C@H]1CCc2c(sc3ncnc(Nc4cc5ccnn5cc4OC)c23)C1 [Example 84, (7S)—N-(2-Methoxyethyl)-4-[(6-methoxypyrazolo[1,5-a]pyridin-5-yl)amino]-5,6,7,8-tetrahydro[1]benzothieno[2,3-d]pyrimidine-7-carboxamide]	3
COc1cn2nccc2cc1Nc1ncnc2sc3c(c12)CC[C@H](C(=O)NC(C)(C)C)C3 [Example 86, (7S)—N-tert-Butyl-4-[(6-methoxypyrazolo[1,5-a]pyridin-5-yl)amino]-5,6,7,8-tetrahydro[1]benzothieno[2,3-d]pyrimidine-7-carboxamide]	4
COc1cn2nccc2cc1Nc1ncnc2sc3c(c12)CC[C@H](C(=O)NC1(C)CCC1)C3 [Example 87, (7S)-4-[(6-Methoxypyrazolo[1,5-a]pyridin-5-yl)amino]-N-(1-methylcyclobutyl)-5,6,7,8-tetrahydro[1]benzothieno[2,3-d]pyrimidine-7-carboxamide]	4
COc1cn2nccc2cc1Nc1ncnc2sc3c(c12)CC[C@H](C(=O)Nc1ccc(F)cc1)C3 [Example 88, (7S)—N-(4-Fluorophenyl)-4-[(6-methoxypyrazolo[1,5-a]pyridin-5-yl)amino]-5,6,7,8-tetrahydro[1]benzothieno[2,3-d]pyrimidine-7-carboxamide]	8
COc1cn2nccc2cc1Nc1ncnc2sc3c(c12)CC[C@H](C(=O)Nc1cccc(Cl)c1)C3 [Example 89, (7S)—N-(3-Chlorophenyl)-4-[(6-methoxypyrazolo[1,5-a]pyridin-5-yl)amino]-5,6,7,8-tetrahydro[1]benzothieno[2,3-d]pyrimidine-7-carboxamide]	24
COc1cn2nccc2cc1Nc1ncnc2sc3c(c12)CC[C@H](C(=O)Nc1ccc(Cl)c(Cl)c1)C3 [Example 90, (7S)—N-(3,4-Dichlorophenyl)-4-[(6-methoxypyrazolo[1,5-a]pyridin-5-yl)amino]-5,6,7,8-tetrahydro[1]benzothieno[2,3-d]pyrimidine-7-carboxamide]	235
COc1cn2nccc2cc1Nc1ncnc2sc3c(c12)CC[C@H](C(=O)Nc1ccc(F)c(Cl)c1)C3 [Example 91, (7S)—N-(3-Chloro-4-fluorophenyl)-4-[(6-methoxypyrazolo[1,5-a]pyridin-5-yl)amino]-5,6,7,8-tetrahydro[1]benzothieno[2,3-d]pyrimidine-7-carboxamide]	48
COc1cn2nccc2cc1Nc1ncnc2sc3c(c12)CC[C@H](C(=O)Nc1cccc(F)c1)C3 [Example 92, (7S)—N-(3-Fluorophenyl)-4-[(6-methoxypyrazolo[1,5-a]pyridin-5-yl)amino]-5,6,7,8-tetrahydro[1]benzothieno[2,3-d]pyrimidine-7-carboxamide]	7
COc1cn2nccc2cc1Nc1ncnc2sc3c(c12)CC[C@H](C(=O)Nc1ccc2[nH]ccc2c1)C3 [Example 93, (7S)—N-(1H-Indol-5-yl)-4-[(6-methoxypyrazolo[1,5-a]pyridin-5-yl)amino]-5,6,7,8-tetrahydro[1]benzothieno[2,3-d]pyrimidine-7-carboxamide]	3
CCN(C)C(=O)[C@H]1CCc2c(sc3ncnc(Nc4cc5ccnn5cc4OC)c23)C1 [Example 94, (7S)—N-Ethyl-4-[(6-methoxypyrazolo[1,5-a]pyridin-5-yl)amino]-N-methyl-5,6,7,8-tetrahydro[1]benzothieno[2,3-d]pyrimidine-7-carboxamide]	1
COc1cn2nccc2cc1Nc1ncnc2sc3c(c12)CC[C@H](C(=O)N(C)CCC(F)(F)F)C3 [Example 96, (7S)-4-[(6-Methoxypyrazolo[1,5-a]pyridin-5-yl)amino]-N-methyl-N-(3,3,3-trifluoropropyl)-5,6,7,8-tetrahydro[1]benzothieno[2,3-d]pyrimidine-7-carboxamide]	7
CCCCN(C)C(=O)[C@H]1CCc2c(sc3ncnc(Nc4cc5ccnn5cc4OC)c23)C1 [Example 97, (7S)—N-Butyl-4-[(6-methoxypyrazolo[1,5-a]pyridin-5-yl)amino]-N-methyl-5,6,7,8-tetrahydro[1]benzothieno[2,3-d]pyrimidine-7-carboxamide]	1
COc1cn2nccc2cc1Nc1ncnc2sc3c(c12)CC[C@H](C(=O)N(C)CCCN(C)C)C3 [Example 99, (7S)—N-[3-(Dimethylamino)propyl]-4-[(6-methoxypyrazolo[1,5-a]pyridin-5-yl)amino]-N-methyl-5,6,7,8-tetrahydro[1]benzothieno[2,3-d]pyrimidine-7-carboxamide]	1
COc1cn2nccc2cc1Nc1ncnc2sc3c(c12)CC[C@H](C(=O)N(C)CCN(C)C)C3 [Example 101, (7S)—N-[2-(Dimethylamino)ethyl]-4-[(6-methoxypyrazolo[1,5-a]pyridin-5-yl)amino]-N-methyl-5,6,7,8-tetrahydro[1]benzothieno[2,3-d]pyrimidine-7-carboxamide]	2
COc1cn2nccc2cc1Nc1ncnc2sc3c(c12)CC[C@H](C(=O)N(C)C(C)C)C3 [Example 105, (7S)-4-[(6-Methoxypyrazolo[1,5-a]pyridin-5-yl)amino]-N-methyl-N-(propan-2-yl)-5,6,7,8-tetrahydro[1]benzothieno[2,3-d]pyrimidine-7-carboxamide]	2
COc1cn2nccc2cc1Nc1ncnc2sc3c(c12)CC[C@H](C(=O)N1CC[C@H](N(C)C)C1)C3 [Example 107, [(3S)-3-(Dimethylamino)pyrrolidin-1-yl](7S)-4-[(6-methoxypyrazolo[1,5-a]pyridin-5-yl)amino]-5,6,7,8-tetrahydro[1]benzothieno[2,3-d]pyrimidin-7-ylmethanone]	< 1
COc1cn2nccc2cc1Nc1ncnc2sc3c(c12)CC[C@H](C(=O)N1C[C@H](O)[C@@H](O)C1)C3 [Example 108, [(3S,4S)-3,4-Dihydroxypyrrolidin-1-yl](7S)-4-[(6-methoxypyrazolo[1,5-a]pyridin-5-yl)amino]-5,6,7,8-tetrahydro[1]benzothieno[2,3-d]pyrimidin-7-ylmethanone]	1
COc1cn2nccc2cc1Nc1ncnc2sc3c(c12)CC[C@H](C(=O)N1CCC(N(C)C)CC1)C3 [Example 109, [4-(Dimethylamino)piperidin-1-yl](7S)-4-[(6-methoxypyrazolo[1,5-a]pyridin-5-yl)amino]-5,6,7,8-tetrahydro[1]benzothieno[2,3-d]pyrimidin-7-ylmethanone]	1
COc1cn2nccc2cc1Nc1ncnc2sc3c(c12)CC[C@H](C(=O)N1CCC(N(C)CCN(C)C)CC1)C3 [Example 110]	< 1
COc1cn2nccc2cc1Nc1ncnc2sc3c(c12)CC[C@H](C(=O)N(CCO)CCCN(C)C)C3 [Example 111, (7S)—N-[3-(Dimethylamino)propyl]-N-(2-hydroxyethyl)-4-[(6-methoxypyrazolo[1,5-a]pyridin-5-yl)amino]-5,6,7,8-tetrahydro[1]benzothieno[2,3-d]pyrimidine-7-carboxamide]	3
COc1cn2nccc2cc1Nc1ncnc2sc3c(c12)CC[C@H](C(=O)N1C[C@@H](C)O[C@@H](C)C1)C3 [Example 112, [(2R,6S)-2,6-Dimethylmorpholin-4-yl](7S)-4-[(6-methoxypyrazolo[1,5-a]pyridin-5-yl)amino]-5,6,7,8-tetrahydro[1]benzothieno[2,3-d]pyrimidin-7-ylmethanone]	2
COc1cn2nccc2cc1Nc1ncnc2sc3c(c12)CC[C@H](C(=O)N1CCN(CCN(C)C)CC1)C3 [Example 114, 4-[2-(Dimethylamino)ethyl]piperazin-1-yl(7S)-4-[(6-methoxypyrazolo[1,5-a]pyridin-5-yl)amino]-5,6,7,8-tetrahydro[1]benzothieno[2,3-d]pyrimidin-7-ylmethanone]	< 1
